According to patent US20260256814A1, “COMBINATION FOR THE TREATMENT OF INFECTIONS CAUSED BY MYCOPLASMA GENITALIUM” (GLAXOSMITHKLINE INTELLECTUAL PROPERTY DEVELOPMENT LIMITED, priority 2019, published 2026):
Converted amounts (≈) assume the structure as drawn. Where two headings read alike, the source gives them in different places.

Tests used:
Mycoplasma genitalium [1] = assay: Determination of minimum inhibitory concentration (MIC) by the Vero-cell culture method, growth by qPCR; assay type: cell-based
Experimental: A collection of 54 Mycoplasma genitalium isolates originating from 51 patients were tested. Thirty-one strains were macrolide-resistant, with azithromycin MICs of ≥16 μg/mL and mutations in 23S rRNA gene positions A2058 (n=17) or A2059 (n=14, E. coli numbering). Eighteen strains were moxifloxacin-resistant (MIC≥1 μg/ml); 17 had dual resistance and were resistant to both moxifloxacin and azithromycin.
Gepotidacin minimal inhibitory concentrations (MICs) were determined by the Vero-cell culture method for all 54 isolates and minimal bactericidal concentrations (MBCs) against 44 Mycoplasma genitalium strains. Gepotidacin, azithromycin, doxycycline, and moxifloxacin MICs were determined by inoculating 5000 genome equivalents (geq) as determined by quantitative PCR (qPCR) into a Vero-cell culture containing two-fold dilutions of test-antibiotic (Hamasuna et al., Antimicrob. Agents Chemother 49, 4993-4998 (2005)). After a three-week incubation period, cells and supernatant were harvested and growth of Mycoplasma genitalium was determined by qPCR. MIC was defined as the minimal concentration of the test-antibiotic causing a 99% inhibition of growth when compared to the mean of the control cultures grown without antibiotic.

Mycoplasma genitalium [2] = assay: Determination of minimum bactericidal concentration (MBC), Vero-cell culture, qPCR; assay type: cell-based; conditions: Mycoplasmoides genitalium, read-out: median MBC
Experimental: After incubation for MIC determination, 15 μl of culture medium was transferred from the MIC plate to 135 μl fresh Vero-cell suspension, resulting in a 10-fold dilution of gepotidacin. Plates were sealed and incubated for four weeks and Mycoplasma genitalium growth was subsequently determined by qPCR. MBC was defined as the minimal concentration of the test-antibiotic causing a 99% inhibition of growth when compared to the mean of the control culture wells grown without antibiotic.

Mycoplasma genitalium [3] = conditions: alternative treatment of Mycoplasma genitalium infection; cited from earlier work
[4] = Mycoplasmoides genitalium, all 54 isolates (36 moxifloxacin-susceptible and 18 moxifloxacin-resistant), Vero-cell culture, 99% inhibition of growth, read-out: MIC50
[5] = Mycoplasmoides genitalium, all 54 isolates, Vero-cell culture, read-out: MIC90
[6] = all 54 isolates, Vero-cell culture
[7] = 18 moxifloxacin-resistant isolates
[8] = 36 moxifloxacin-susceptible isolates

CC[C@H]1OC(=O)[C@H](C)[C@@H](O[C@H]2C[C@@](C)(OC)[C@@H](O)[C@H](C)O2)[C@H](C)[C@@H](O[C@@H]2O[C@H](C)C[C@H](N(C)C)[C@H]2O)[C@](C)(O)C[C@@H](C)CN(C)[C@H](C)[C@@H](O)[C@]1(C)O [Azithromycin, reference compound]
MIC (Mycoplasma genitalium [1]; Mycoplasmoides genitalium, read-out: MICs, 31 macrolide-resistant strains (23S rRNA A2058 or A2059 mutations)): ≥ 16 µg/mL
MIC50 (Mycoplasma genitalium [1]; [4]): 16 µg/mL (≈ 21.4 µM)
MIC90 (Mycoplasma genitalium [1]; [5]): > 64 µg/mL
MIC90 (Mycoplasma genitalium [1]; [6]): >64 µg/mL

C[C@H]1c2cccc(O)c2C(=O)C2=C(O)[C@]3(O)C(=O)C(C(N)=O)=C(O)[C@@H](N(C)C)[C@@H]3[C@@H](O)[C@@H]21 [Doxycycline, reference compound]
MIC50 (Mycoplasma genitalium [1]; [4]): 0.5 µg/mL (≈ 1.13 µM)
MIC90 (Mycoplasma genitalium [1]; [5]): 1 µg/mL (≈ 2.25 µM)
MIC range (Mycoplasma genitalium [1]; [6]): 0.06 to 2 µg/mL

O=c1ccc2ncc(=O)n3c2n1C[C@H]3CN1CCC(NCc2cc3c(cn2)OCCC3)CC1 [Gepotidacin, (2R)-2-({4-[(3,4-dihydro-2/pyrano[2,3-c]pyridin-6-ylmethyl)amino]-1-piperidinyl}methyl)-1,2-dihydro-3H,8/2a,5,8a-triazaacenaphthylene-3,8-dione]
MIC90 (Mycoplasma genitalium [1]; [7]): 0.25 µg/mL (≈ 0.557 µM)
MIC range (Mycoplasma genitalium [1]; [7]): ≤0.016 to 0.5 µg/mL
MIC90 (Mycoplasma genitalium [1]; [8]): 0.25 µg/mL (≈ 0.557 µM)
MIC range (Mycoplasma genitalium [1]; [8]): 0.032 to 0.5 µg/mL
median MIC (Mycoplasma genitalium [1]; 44 isolates for which MBCs were available): 0.064 µg/mL
difference in MIC between fluoroquinolone-, dual-resistant and -susceptible isolates (Mycoplasma genitalium [1]; 54 isolates, p=0.2): no difference
difference in MIC between macrolide-resistant and -susceptible isolates (Mycoplasma genitalium [1]; 54 isolates, p=0.24): no difference
MIC90 (Mycoplasma genitalium [1]; Mycoplasmoides genitalium): 0.25 µg/mL (≈ 0.557 µM)
MIC50 (Mycoplasma genitalium [1]; Mycoplasmoides genitalium, 18 moxifloxacin-resistant isolates): 0.064 µg/mL (≈ 0.143 µM)
MIC50 (Mycoplasma genitalium [1]; Mycoplasmoides genitalium, 36 moxifloxacin-susceptible isolates): 0.125 µg/mL (≈ 0.279 µM)
MIC (Mycoplasma genitalium [1]; Mycoplasmoides genitalium, read-out: median MIC, 44 isolates for which MBCs were available): 0.064 µg/mL (≈ 0.143 µM)
MIC (Mycoplasma genitalium [1]; Mycoplasmoides genitalium, read-out: median MIC, all 54 isolates): 0.125 µg/mL (≈ 0.279 µM)
MIC (Mycoplasma genitalium [1]; Mycoplasmoides genitalium, read-out: modal MIC, all 54 isolates): 0.125 µg/mL (≈ 0.279 µM)
MIC50 (Mycoplasma genitalium [1]; Mycoplasmoides genitalium, all 54 isolates (36 moxifloxacin-susceptible and 18 moxifloxacin-resistant), Vero-cell culture, 99% inhibition of growth): 0.125 µg/mL (≈ 0.279 µM)
MIC range (Mycoplasma genitalium [1]; all 54 isolates): ≤0.016 to 0.5 µg/mL
MIC90 (Mycoplasma genitalium [1]; [6]): 0.25 µg/mL (≈ 0.557 µM)
MIC range (Mycoplasma genitalium [1]; [6]): ≤0.016 to 0.5 µg/mL
cross-resistance to the tested comparators (Mycoplasma genitalium [1]; all isolates incl. fluoroquinolone- and macrolide-resistant): no cross-resistance
MBC (Mycoplasma genitalium [2]): 0.125 µg/mL (≈ 0.279 µM)

COc1c(N2C[C@@H]3CCCN[C@@H]3C2)c(F)cc2c(=O)c(C(=O)O)cn(C3CC3)c12 [Moxifloxacin, reference compound]
MIC (Mycoplasma genitalium [1]; Mycoplasmoides genitalium): ≥ 1 µg/mL
MIC50 (Mycoplasma genitalium [1]; Mycoplasmoides genitalium): 0.25 µg/mL (≈ 0.623 µM)
MIC90 (Mycoplasma genitalium [1]; Mycoplasmoides genitalium): 4 µg/mL (≈ 9.96 µM)
MIC90 (Mycoplasma genitalium [1]; [6]): 4 µg/mL (≈ 9.96 µM)

pristinamycin
effective (Mycoplasma genitalium [3]): 80%
